Here are results for 12 compounds from paper PMC8986778, “Citrullination of glucokinase is linked to autoimmune diabetes” (Nature Communications, 2022).

The IC50 is the concentration at which inhibition is half-maximal. One may read the Vmax as the top rate of the reaction or transport when substrate is in excess. A word on the Km: it is the concentration of substrate that gives half-maximal velocity.

Where two headings read alike, the source gives them in different places. Non-standard residues stand in square brackets, D forms with d. Residues, ends and D or L forms follow the SMILES beside them. Cit = NC(=O)NCCC[C@H](N)C(=O)O Some results are limits rather than exact numbers.

One data set addresses T1, DR0401 protein (Homo sapiens, UniProt P01903+P01911, A100K/A169T/F76Y/I96L/K127E/L162R/M171V/N62H/P40V/Q125Y/R42H/S133A/S149N/S66Y/V115G/V209L/W38E).
T1 construct: made in house; host or cells: insect cell cultures
Description: DR0401 peptide binding competition assay. Particulars: competition with biotin-HA306-318 0.02 μM.

For data set [1], the system named is recombinant human pancreatic glucokinase. Nature of the data set: Catalytic activity of recombinant human pancreatic glucokinase (G6PDH coupled assay). Type of data set: biochemical. Further details: catalytic activity: unit not given beside the values. The settings on record: for catalytic activity: source data sheet Fig 5c; for Vmax / Km: steady-state kinetics at 37 °C, Michaelis-Menten fit; for Vmax: glucose 0–50 mM; for Km: substrate glucose 0–50 mM. As to the method: For in vitro citrullination, 0.1U of rabbit peptidylarginine deiminase (PADI2; Sigma–Aldrich) were added to 50 µg of recombinant human pancreatic glucokinase (rhGK; LS-G3456, LSBio) in reaction buffer (0.1 M Tris-HCl, 10 mM CaCl2 and 5 mM DTT) at 37 °C for 2.5 hrs and kept at -80 °C in multiple aliquots to avoid freeze and thaw until used. Minimum 6 µg of rhGK and PAD-treated-rhGK were reduced, alkylated and tryptic digested for LS-MS/MS analysis. Data were collected on a QE-Plus mass spectrometer coupled to a NanoACQUITY UPLC (Waters Inc.). A Waters Symmetry® C18 180 μm × 20 mm trap column and a 1.7-μm, 75 μm × 250 mm nanoACQUITY UPLC column (35 °C) was utilized for the separation. Collected LC–MS/MS data were processed using Proteome Discoverer Software (v. 2.2, Thermo Fisher Scientific) and searched were carried out in MASCOT Search Engine (Matrix Science) using the below parameters; oxidation (M), deamidated (N/Q) and citrullination (R) as the variable modifications and carbamidomethylation (C) as a fixed modification. Mascot results were loaded into Scaffold Q + S 4.11.0 and then Scaffold PTM 3.3.0 was used to re-analyze MS/MS spectra identified as citrulline modified peptides. Calculated Ascore values for citrullinated peptides containing the neutral loss of isocyanic acid (−43 Da)[54] indicate the level of site localization probabilities to assess the level of confidence in each citrullination PTM localization. Scaffold PTM then combines localization probabilities for all peptides containing each identified PTM site to obtain the best estimated probability that a PTM is present at that particular site. Manual MS/MS inspection of the modified peptides were also carried out to ensure correct assignments/localizations of the citrullination sites (detailed MS/MS spectra are presented in Source Data-File 2 spreadsheet).
After in vitro citrullination by PAD as described above, recombinant human pancreatic glucokinase (rhGK; LS-G5486, LSBio) was put on the ice to stop the reaction for 5 min. Then glucokinase activity was measured spectrophotometrically (A340nm) at 37 °C by a glucose 6-phosphate dehydrogenase (G6PDH) coupled assay as described previously. In brief, 1 µg rhGK or PAD-treated rhGK was assayed in a reaction buffer containing 25 mM Hepes (pH7.3), 2 mM MgCl2, 1 mM DTT, 0.5 mM NADP, 2 mM ATP, 0.01%BSA, 20U/ml G6PDH and 25 mM D-( + )-glucose. Relative specific activity of glucokinase was calculated from linear regression of the change in A340nm. To determine the steady-state kinetic properties of both rhGK and PAD-treated rhGK, varying concentrations of D-( + )-glucose (0–50 mM) were used. Vmax and Km were calculated by Michaelis-Menten equation using GraphPad Prism Software.

Where [2] appears, read: Supplementary Table 3, representative values from two replicate experiments, read-out: IC50 (Effect of Citrulline or Arg Substitution).
Where [3] appears, read: Supplementary Table 2, read-out: IC50 (Binding of Predicted Glucokinase Peptides to DR04:01).
[4] abbreviates: 25 mM glucose, 1 µg protein, replicate 1.
The mark [5] stands for this setting: 25 mM glucose, 1 µg protein, replicate 2.

Turning to `CC[C@H](C)[C@H](NC(=O)[C@H](CC(N)=O)NC(=O)[C@H](Cc1ccc(O)cc1)NC(=O)[C@@H](NC(=O)[C@H](CCC(N)=O)NC(=O)[C@@H](N)CCCCN)[C@@H](C)CC)C(=O)N[C@@H](CC(C)C)C(=O)N[C@@H](CO)C(=O)N[C@H](C(=O)N[C@@H](CC(C)C)C(=O)NCC(=O)N[C@@H](CC(C)C)C(=O)N[C@@H](CCCNC(=N)N)C(=O)N1CCC[C@H]1C(=O)N[C@@H](CO)C(=O)O)[C@@H](C)O` [GK 346 WT] (H-KQIYNILSTLGLRPS-OH), the IC50 at DR0401 protein (setting [2]) worked out at 0.47 µM.

Regarding `CC[C@H](C)[C@H](NC(=O)[C@H](CC(N)=O)NC(=O)[C@H](Cc1ccc(O)cc1)NC(=O)[C@@H](NC(=O)[C@H](CCC(N)=O)NC(=O)[C@@H](N)CCCCN)[C@@H](C)CC)C(=O)N[C@@H](CC(C)C)C(=O)N[C@@H](CO)C(=O)N[C@H](C(=O)N[C@@H](CC(C)C)C(=O)NCC(=O)N[C@@H](CC(C)C)C(=O)N[C@@H](CCCNC(N)=O)C(=O)N1CCC[C@H]1C(=O)N[C@@H](CO)C(=O)O)[C@@H](C)O` [GK 346] (H-KQIYNILSTLGL[Cit]PS-OH), the IC50 at DR0401 protein (setting [2]) amounted to 0.54 µM. As for `CC[C@H](C)[C@H](NC(=O)[C@H](CC(N)=O)NC(=O)[C@@H](N)Cc1ccc(O)cc1)C(=O)N[C@@H](CC(C)C)C(=O)N[C@@H](CO)C(=O)N[C@H](C(=O)N[C@@H](CC(C)C)C(=O)NCC(=O)N[C@@H](CC(C)C)C(=O)N[C@@H](CCCNC(N)=O)C(=O)N1CCC[C@H]1C(=O)N[C@@H](CO)C(=O)N[C@H](C(=O)N[C@H](C(=O)N[C@@H](CC(=O)O)C(=O)O)[C@@H](C)O)[C@@H](C)O)[C@@H](C)O` [GK 349-363] (H-YNILSTLGL[Cit]PSTTD-OH; N-terminus and C-terminus assumed), at DR0401 protein (setting [3]), the IC50 is greater than 50 µM. Same read-out and setting: the value for `CC[C@H](C)[C@H](NC(=O)[C@H](CC(=O)O)NC(=O)[C@H](CS)NC(=O)[C@H](CC(=O)O)NC(=O)[C@@H](NC(=O)[C@@H](NC(=O)[C@H](CO)NC(=O)[C@@H]1CCCN1C(=O)[C@H](CCCNC(N)=O)NC(=O)[C@H](CC(C)C)NC(=O)CNC(=O)[C@H](CC(C)C)NC(=O)[C@@H](NC(=O)[C@H](CO)NC(=O)[C@@H](N)CC(C)C)[C@@H](C)O)[C@@H](C)O)[C@@H](C)O)C(=O)O` [GK 352-366] (H-LSTLGL[Cit]PSTTDCDI-OH; N-terminus and C-terminus assumed) was greater than 50 µM. Still for that read-out and setting: the result for `CC[C@H](C)[C@H](NC(=O)[C@@H](N)CC(=O)O)C(=O)N[C@H](C(=O)N[C@@H](CCCNC(N)=O)C(=O)N[C@@H](CCCNC(=N)N)C(=O)N[C@@H](C)C(=O)N[C@@H](CS)C(=O)N[C@@H](CCC(=O)O)C(=O)N[C@@H](CO)C(=O)N[C@H](C(=O)N[C@@H](CO)C(=O)N[C@H](C(=O)N[C@@H](CCCNC(N)=O)C(=O)N[C@@H](C)C(=O)O)[C@@H](C)O)C(C)C)C(C)C` [GK 365-378] (H-DIV[Cit]RACESVST[Cit]A-OH; N-terminus and C-terminus assumed) reads greater than 50 µM; that for `CC[C@H](C)[C@H](NC(=O)[C@@H](NC(=O)CNC(=O)[C@H](C)N)C(C)C)C(=O)N[C@@H](CC(N)=O)C(=O)N[C@@H](CCCNC(N)=O)C(=O)N[C@@H](CCSC)C(=O)N[C@@H](CCCNC(N)=O)C(=O)N[C@@H](CCC(=O)O)C(=O)N[C@@H](CO)C(=O)N[C@@H](CCCNC(N)=O)C(=O)N[C@@H](CO)C(=O)N[C@@H](CCC(=O)O)C(=O)N[C@@H](CC(=O)O)C(=O)N[C@H](C(=O)O)C(C)C` [GK 387-401] (H-AGVIN[Cit]M[Cit]ES[Cit]SEDV-OH; N-terminus and C-terminus assumed), greater than 50 µM; that for `CC[C@H](C)[C@H](NC(=O)[C@H](CCCNC(N)=O)NC(=O)[C@H](CCSC)NC(=O)[C@@H](NC(=O)[C@H](CC(=O)O)NC(=O)[C@H](CCC(=O)O)NC(=O)[C@@H](N)CO)C(C)C)C(=O)N[C@H](C(=O)N[C@H](C(=O)NCC(=O)N[C@H](C(=O)N[C@@H](CC(=O)O)C(=O)NCC(=O)N[C@@H](CO)C(=O)N[C@H](C(=O)O)C(C)C)C(C)C)C(C)C)[C@@H](C)O` [GK 398-412] (H-SEDVM[Cit]ITVGVDGSV-OH; N-terminus and C-terminus assumed), greater than 50 µM. Same read-out and setting: the value for `CC(C)C[C@H](NC(=O)[C@H](CCCCN)NC(=O)[C@H](Cc1ccc(O)cc1)NC(=O)[C@@H](NC(=O)[C@H](CO)NC(=O)CN)C(C)C)C(=O)N[C@@H](Cc1c[nH]cn1)C(=O)N1CCC[C@H]1C(=O)N[C@@H](CO)C(=O)N[C@@H](Cc1ccccc1)C(=O)N[C@@H](CCCCN)C(=O)N[C@@H](CCC(=O)O)C(=O)N[C@@H](CCCNC(N)=O)C(=O)N[C@@H](Cc1ccccc1)C(=O)N[C@@H](Cc1c[nH]cn1)C(=O)O` [GK 410-424] (H-GSVYKLHPSFKE[Cit]FH-OH; N-terminus and C-terminus assumed) was greater than 50 µM. On to `CC(C)C[C@H](NC(=O)[C@H](CCCNC(N)=O)NC(=O)[C@H](CCCNC(=N)N)NC(=O)[C@@H](NC(=O)[C@H](CO)NC(=O)[C@H](C)NC(=O)[C@H](Cc1c[nH]cn1)NC(=O)[C@H](Cc1ccccc1)NC(=O)[C@H](CCCNC(N)=O)NC(=O)[C@H](CCC(=O)O)NC(=O)[C@H](CCCCN)NC(=O)[C@H](Cc1ccccc1)NC(=O)[C@H](CO)NC(=O)[C@@H]1CCCN1C(=O)[C@@H](N)Cc1c[nH]cn1)C(C)C)C(=O)O` [GK 416-439] (H-HPSFKE[Cit]FHASVR[Cit]L-OH; N-terminus and C-terminus assumed), for which the IC50 on DR0401 protein (setting [3]) is greater than 50 µM. Take `CC[C@H](C)[C@H](NC(=O)[C@H](Cc1ccccc1)NC(=O)[C@@H](NC(=O)[C@@H](NC(=O)[C@@H](N)CCC(=O)O)[C@@H](C)CC)[C@@H](C)O)C(=O)N[C@@H](CCC(=O)O)C(=O)N[C@@H](CO)C(=O)N[C@@H](CCC(=O)O)C(=O)N[C@@H](CCC(=O)O)C(=O)NCC(=O)N[C@@H](CO)C(=O)NCC(=O)N[C@@H](CCCNC(N)=O)C(=O)NCC(=O)N[C@@H](C)C(=O)O` [GK 435-449] (H-EITFIESEEGSG[Cit]GA-OH; N-terminus and C-terminus assumed): the IC50 at DR0401 protein (setting [3]) is greater than 50 µM. Turning to “PAD-treated rhGK: rhGK citrullinated in vitro by rabbit peptidylarginine deiminase (PADI2)”, in data set [1] (25 mM glucose, 1 µg protein, versus native rhGK), the “reduction of catalytic activity by citrullination” value turned out to be 20%. Also, the catalytic activity in data set [1] (setting [4]) is given as 56.53. For the same compound, the catalytic activity in data set [1] (setting [5]) stood at 60.82. Also, in data set [1], the Vmax amounted to 119.9 ± 7.7 µmol/mg/min and the Km came out at 16.2 ± 2.3 mM. As for “rhGK: Recombinant human pancreatic glucokinase”, the catalytic activity in data set [1] (setting [4]) is given as 72.34. Moreover, the catalytic activity in data set [1] (setting [5]) was found to be 76.63. In addition, in data set [1], the Vmax is recorded as 115.1 ± 10.5 µmol/mg/min and the Km came to 8.48 ± 2.1 mM.
